Converted amounts (≈) assume the structure as drawn. “Also recorded” adds a separate entry of the source. Like-named read-outs stand apart in the source and are kept apart here. *1 amine or outer side, *2 acyl side, *3 side chain or, on linkers, in order; H or OH if unused. Where a SMILES comes first, the peptide text is derived from it. [ ]: non-standard residue; d: D form. X2 = CC[C@H](C)C[C@H](C)C[C@H](C)C[C@H](N[*:1])C(=O)[*:2]; X1 = CC[C@@H](C)[C@@H](O[*:1])C(=O)[*:2]; NMeVal(β-OH) = CN[C@H](C(=O)O)C(C)(C)O; aIle = CC[C@@H](C)[C@H](N)C(=O)O; NMeV = CN[C@H](C(=O)O)C(C)C; Sar = CNCC(=O)O
What was measured:
Candida albicans SC5314 = assay: Ex vivo model of fungal keratitis (porcine cornea)
[1] = test system: Aspergillus fumigatus NRRL5109; assay: Ex vivo model of fungal keratitis (porcine cornea); conditions: for effect of different doses on fungal growth: FIG. 10
[2] = Mammalian cell cytotoxicity assay (calcein/Hoechst); format: cell-based; conditions: human, read-out: LC50
Description: Cell cytotoxicity was tested against the human liver cancer cell line HepG2 and the HPV-immortalized ectocervical epithelium cell line Ect1/E6E7. The HepG2 cells were cultured in the EMEM medium supplemented with 5% FetalClone III and penicillin/streptomycin (5 Units/mL, 50 ug/mL). The Ect1/E6E7 cells were grown in the RPMI 1640 medium supplemented with 5% FetalClone III, EGF (10 ng/mL Novoprotein #C029), and penicillin/streptomycin (5 Units/mL, 50 ug/mL). For the assays, 5,000 HepG2 or Ect1/E6E7 cells were seeded into each well of a 96-well plate and allowed to attach overnight in a 37° C. humidified incubator. The next day, test compounds were diluted in DMSO, added to the wells at a final DMSO concentration of 0.5% and cells were incubated for an additional 48 hours. Cell viability was determined by the Calcein and Hoechst Assay on the Perkin Elmer Operetta. In each assay, 5 μL of the fluorescent dyes (40 μM calcein AM and 160 μM Hoechst 33342 in DMSO) and 25 μL PBS were added into each well. Plates were incubated for 30 minutes and then analyzed on the Operetta. The Harmony software was used to calculate the whole-cell area by finding all the Hoechst-labeled nuclei. The live and dead cells were assessed based on a threshold of the green calcein fluorescence. […]

Alternaria brassicicola = assay: MIC/MFC against phytopathogenic (endophytic) fungi
Alternaria brassicae = assay: MIC/MFC against phytopathogenic (endophytic) fungi
Alternaria tennuissiema = assay: MIC/MFC against phytopathogenic (endophytic) fungi
Fusarium oxysporum = assay: MIC/MFC against phytopathogenic (endophytic) fungi
Fusarium tricinctum = assay: MIC/MFC against phytopathogenic (endophytic) fungi
Mycosphaerella populorum = assay: MIC/MFC against phytopathogenic (endophytic) fungi; conditions: Sphaerulina musiva
Nodulosporium spp. = assay: MIC/MFC against phytopathogenic (endophytic) fungi
P. glomerata = assay: MIC/MFC against phytopathogenic (endophytic) fungi

In the case of `CC[C@H](C)C[C@H](C)C[C@H](C)C[C@@H]1NC(=O)[C@H](C(C)C)N(C)C(=O)[C@@H]([C@H](C)CC)OC(=O)[C@H](C(C)(C)O)N(C)C(=O)[C@H](CC(C)C)NC(=O)[C@H](C(C)C)N(C)C(=O)[C@H]([C@H](C)CC)NC(=O)[C@@H]2CCCN2C(=O)CN(C)C1=O` [Compound 1, persephacin] (cyclo(L[NMeVal(β-OH)][X1][NMeV][X2][Sar]P[aIle][NMeV])), the “antifungal activity (fungal growth/infection), in words” value (Candida albicans SC5314; 0.1% 118A, 2% fluconazole, 5% natamycin, FIG. 11) is reported as “inhibited the growth; also recorded: eliminated the fungus”, the “effect of different doses on fungal growth” value (“effect of different doses” for short) (Candida albicans SC5314; 50-1,000 μg/mL, FIG. 8) is reported as “effective at reducing or eliminating the fungus” and the CFU (Candida albicans SC5314; 118A 0.1% (1 mg/ml), natamycin 5% (50 mg/ml), fluconazole 2% (20 mg/ml)) is reported as 0 CFU. The “effect of different doses” value ([1]; Aspergillus fumigatus NRRL 5109, 1,000 μg/mL) was “eliminating”, the “antifungal activity (fungal growth/infection), in words” value ([1]; Aspergillus fumigatus NRRL 5109, 0.1% 118A, 2% fluconazole, 5% natamycin, FIG. 13) was “inhibited the growth; also recorded: eliminated the fungus” and the “effect of different doses” value ([1]; Aspergillus fumigatus NRRL 5109, 50-250 μg/mL) was “effective at reducing”. The CFU ([1]; Aspergillus fumigatus NRRL5109, 118A 0.1% (1 mg/ml), natamycin 5% (50 mg/ml), fluconazole 2% (20 mg/ml)) was 0 CFU, the CC50 at 48 h ([2]; Ect1/E6E7 cells (HPV-immortalized ectocervical epithelium), Ect1/E6E7 cell line) was 30 µM and the CC50 at 48 h ([2]; HepG2 cells, HepG2 cell line) was 30 µM. For the same molecule, the MFC (Alternaria brassicicola) was 20 µM (≈ 21.5 µg/mL), the MIC (Alternaria brassicicola) was 5 µM (≈ 5.38 µg/mL) and the MFC (Alternaria brassicae) was 2.5 µM (≈ 2.69 µg/mL). It also gave an MIC (Alternaria brassicae) of 1.25 µM (≈ 1.34 µg/mL), an MFC (Alternaria tennuissiema) of 10 µM (≈ 10.8 µg/mL) and an MIC (Alternaria tennuissiema) of 10 µM (≈ 10.8 µg/mL). The MFC (Fusarium oxysporum) was 20 µM (≈ 21.5 µg/mL), the MIC (Fusarium oxysporum) was 5 µM (≈ 5.38 µg/mL) and the MFC (Fusarium tricinctum) was 10 µM (≈ 10.8 µg/mL). The MIC (Fusarium tricinctum) was 5 µM (≈ 5.38 µg/mL), the MFC (Mycosphaerella populorum) was 10 µM (≈ 10.8 µg/mL) and the MIC (Mycosphaerella populorum) was 2.5 µM (≈ 2.69 µg/mL). The MFC (Nodulosporium spp.) was > 20 µM, the MIC (Nodulosporium spp.) was > 20 µM and the MFC (Nodulosporium spp.; Nodulosporium spp., […]) was “neither compound showed MIC or MFC activity”. The MIC (Nodulosporium spp.; Nodulosporium spp., […]) was “neither compound showed MIC or MFC activity”, the MFC (P. glomerata) was 1.25 µM (≈ 1.34 µg/mL) and the MIC (P. glomerata) was 0.625 µM (≈ 0.672 µg/mL). The MIC (P. glomerata; P. glomerata, […], listed as Persephacin A) was “.625 µM”.

Source: patent publication US11643438B2, “Antimicrobial peptides and methods of use” (priority 2018, dated 2023)
